Measured values reported in US20160184459A1, “CANCER CELL SPECIFIC IMAGING PROBES AND METHODS OF USE” (THE RESEARCH FOUNDATION FOR THE STATE UNIVERSITY OF NEW YORK, priority 2013, published 2016).
Like-named read-outs stand apart in the source and are kept apart here. Residues, ends and D or L forms follow the SMILES beside them. *: point of attachment. Cbz = O=C(OCc1ccccc1)*

Key:
[1] = system: HDAC and endogenous protease (cathepsin L) activity in BxPC3 and CFPac-1 cells; assay: Live cell enzymatic assay with Boc-Lys(Ac)-AMC, release of AMC; type: cell-based; details: for Activation of substrate Boc-Lys(Ac)-AMC: substrate 25 μM, 6 hr
Description: FIG. 5. A. HDAC assay using different substrates in BxPC3 cells (shGFP and shSki). Cells were incubated with Boc-Lys(Ac)-AMC or Ac-Arg-Gly-Lys(Ac)-AMC (25 μM) for 1 hr with DMSO (vehicle) or TSA (1 μM) as indicated, followed by cell lysis and trypsin treatment, and fluorescence measurements. Data represent mean values of triplicate measurements±standard deviation. RFU, relative fluorescent units. B. Similar experiment was done as in A but without cell lysis and trypsin treatment. Cells were incubated with the substrates for 2.5 hr.
FIG. 6. A. Release of AMC by combined HDAC and endogenous protease-dependent enzymatic reaction in BxPC3 and CFPac-1 cells (shGFP and shSki). Cells were incubated with substrate Boc-Lys(Ac)-AMC (25 μM) for 6 hr with DMSO (vehicle), TSA (1 μM), or Z-FY-CHO (10 μM) as indicated, followed by fluorescence measurements. Data represent mean values of triplicate measurements±standard deviation. RFU, relative fluorescent units. B. Time course of AMC release in BxPC3 cells (shGFP and shSki). Each cells were incubated with Boc-Lys(Ac)-AMC (25 μM) for 2.5, 6.0, and 23 hr with DMSO (vehicle) or TSA (1 μM) as indicated.
Tissue culture based standard HDAC assays were performed by commercially available fluorimetric HDAC assay kit (SensoLyte, AnaSpec) according to the manufacturer's instruction with modification of using 25 μM Boc-Lys(Ac)-AMC (Bachem) as substrate and measuring parameter (Ex/Em=355 nm/460 nm) for AMC. […] After 15 m incubation at room temperature, the fluorescent signal of AMC was measured by SpectraMax M5 microplate reader (Molecular Devices) at Ex/Em=355 nm/460 nm. Live cell lysyl endopeptidase assay was performed by applying the substrate 25 μM Boc-Lys-AMC (Bachem) [either with DMSO or 100 μM Z-FY-CHO (EMD)] to the overnight culture seeded from 6×10^4 cells in 100 μl medium in 96-well tissue culture plates, followed by 20 h incubation at 37° C. with 5% CO2 atmosphere, then the fluorescent signal of AMC was measured. Live cell enzymatic assay using Boc-Lys(Ac)-AMC was performed by applying the substrate 25 μM Boc-Lys(Ac)-AMC (either with DMSO, 1 μM TSA or 100 μM Z-FY-CHO) to the overnight culture seeded from 6×10^4 cells in 100 μl medium in 96-well tissue culture plates, followed by 20 h incubation at 37° C. with 5% CO2 atmosphere, then the fluorescent signal of AMC was measured. […]
Fluorescence measurement was done at λex=390 nm and λem=460 nm for AMC. […] Cells were then lysed and the lysates incubated with exogenously added excess trypsin to cleave only those lysine residues that are de-acetylated and activate fluorescence. […]

[2] = target: T1, lysyl endopeptidase activity (CTSL) in live cells (Homo sapiens, UniProt P07711); assay: Live cell lysyl endopeptidase assay with Boc-Lys-AMC; type: cell-based; details: Z-FY-CHO 100 μM, substrate 25 μM, 20 h
T1 construct: endogenous in cells; host or cells: Panel of cultured lines: Caco-2, COGA-10, HCA-7, HT29, HCT116, CCD841-CoN, MiaPaca-2, BXPC-3, HepG2, HeLa (human) and Eph4 (mouse)
Description: FIG. 2. Comparative live cell lysyl endopeptidase activity of the same cell lines as in FIG. 1 using substrate Boc-Lys-AMC either with vehicle control DMSO or Z-FY-CHO (100 μM). Data represent mean values of triplicate measurements±s.d. RFU, relative fluorescent units.
Tissue culture based standard HDAC assays were performed by commercially available fluorimetric HDAC assay kit (SensoLyte, AnaSpec) according to the manufacturer's instruction with modification of using 25 μM Boc-Lys(Ac)-AMC (Bachem) as substrate and measuring parameter (Ex/Em=355 nm/460 nm) for AMC. Basically, HDAC substrate 25 μM Boc-Lys(Ac)-AMC [either with DMSO or 1 μM TSA (Sigma)] was applied to the overnight culture seeded from 6×10^4 cells in 100 μl medium in 96-well tissue culture plates, followed by 2 to 3 h incubation at 37° C. with 5% CO2 atmosphere. […] After 15 m incubation at room temperature, the fluorescent signal of AMC was measured by SpectraMax M5 microplate reader (Molecular Devices) at Ex/Em=355 nm/460 nm. Live cell lysyl endopeptidase assay was performed by applying the substrate 25 μM Boc-Lys-AMC (Bachem) [either with DMSO or 100 μM Z-FY-CHO (EMD)] to the overnight culture seeded from 6×10^4 cells in 100 μl medium in 96-well tissue culture plates, followed by 20 h incubation at 37° C. with 5% CO2 atmosphere, then the fluorescent signal of AMC was measured. […]

BxPC3 cells (shGFP) = assay: MTT cell viability assay, BxPC3 shGFP; type: cell-based; details: Homo sapiens, BXPC-3, 72 hr
Description: (§1) FIG. 24. Effect of the prodrug on cell viability of BxPC3 cells (shGFP and shSki). Cells were treated with the indicated dose of drugs (BKAc-5FCR or 5FCR) for 72 hr followed by MTT assay. Data represent mean values of triplicate measurements±standard deviation. IC50 values were derived from nonlinear curve fit of the dose response data using an outlier's exclusion, variable slope model (GraphPad Prism software). All values are means of at least two independent experiments.
(§2) The in vitro efficacy of the compounds in a series of BxPC3 and CFPac-1 derivatives with reduced Class I HDAC activity following Ski knockdown (shSki), HDAC3 knockdown and control (shGFP) was assessed. The growth inhibitory/viability effects of the compounds (IC50 value, the concentration resulting in 50% growth inhibition) on the various cell lines were determined by dose response curve analysis (GraphPad Prism software) of MTT [3-(4,5dimethylthiazol-2-yl)-2,5-diphenyl-tetrazolium bromide] cell viability assay. If the prodrugs are activated in an HDAC-dependent manner, the cells with reduced HDAC activity would be predicted to be more resistant to the prodrug treatment than control cells, while the effect of free parental drugs on both cells would be expected to be similar.

BxPC3 cells (shSki) = assay: MTT cell viability assay, BxPC3 shSki; type: cell-based; details: Homo sapiens, BXPC-3, 72 hr
Description: as §1, §2

cells = assay: 72 hr in vitro cytotoxicity with TSA; type: cell-based; details: TSA 1 μM
Source text: The prodrugs that are synthesized may have some basal level of cytotoxicity before they are activated by HDAC3. One way to determine the IC50 values of the uncleaved forms of the prodrugs would be to use HDAC inhibitors both in vitro and in vivo. […] […] […] For example, among available HDAC inhibitors, SAHA (Vorinostat), a FDA approved pharmaceutical HDAC inhibitor (Bradner, J. E. et al. 2010), is known to inhibit all of these HDACs with much lower cytotoxicity than TSA. Thus, SAHA is an alternative HDAC inhibitor for the prodrug evaluation as well. By comparing the prodrug ICo values for cytotoxicity under conditions of HDAC inhibition with those values where HDACs are active we are able to provide data on the HDAC dependence of our new class of prodrugs.

BXPC3 cells = assay: MTS cell viability assay with or without TSA; type: cell-based, human; details: 20 μM, 72 hr, TSA 50 nM
Description: FIG. 25. Selective cytotoxicity by BKAc-5FCR. Human pancreatic BXPC3 cells were treated with DMSO (vehicle), BKAc-5FCR (20 μM), or 5FCR (20 μM) for 72 hr with or without TSA (50 nM) followed by MTS cell viability assay. Representative phase contrast images of cells treated with DMSO (vehicle) or BKAc-5FCR (20 μM) for 72 hr with or without TSA (50 nM) are shown.

[3] = system: non-malignant Caco-2 cells; assay: MTS cell viability assay, Caco-2; type: cell-based, human; details: parental Puro, MTS, 3 d
Description: FIG. 13. Inhibition of cell viability by BKAc-Puro is presented in dose-response curve format for the same cell lines as in FIG. 8. The cell lines were treated with DMSO or the indicated doses of agent (4.22, 8.44, 16.9, 33.8, 67.5, or 135 μM) for 5 d followed by MTS assay. Data represent mean values of triplicate measurements±s.d. (n=3). IC50 values were fit by logistic regression.
FIG. 14. Inhibition of cell viability by parental Puro. The cell lines were treated with the indicated doses of Puro (0, 1.1, 2.1, 4.2, or 8.4 μM) for 3 d followed by MTS assay. Data represent mean values of triplicate measurements±s.d.
Cell number was determined by cell counting using improved Neubauer hemacytometer. Cell viability was calculated as the number of viable cells divided by the total number of cells using Trypan Blue Stain (Invitrogen) to distinguish non-viable cells. Data were obtained from duplicated samples with quadruplicate measurements. MTS based cell viability assay was performed using CellTiter 96 Aqueous Cell Proliferation Assay (Promega) according to the manufacturer's instruction. Either 1 μl of DMSO alone or variable concentrations of BKAc-Puro or Puro in DMSO were added to the cell lines seeded at 5×10^4 cells per well in 96-well tissue culture plates in 100 μl of the growth medium, followed by 3-5 d incubation at 37° C. with 5% CO2 atmosphere. Then 20 μl of the MTS reagent was added to each well. After additional 2-3 h incubation, the absorbance of the formazan at 490 nm was measured by the microplate reader. Percent cell viability was expressed relative to the wells containing cells treated with DMSO alone. Data were obtained from triplicate measurements. […] Determination of non-viable cells using PI staining was performed by adding 1 μg/ml of PI solution (Sigma) to the cell culture, prior to the examination under fluorescence microscopy (Axiovert 3, Carl Zeiss) through a×32 objective equipped with a digital imaging processor (Infinity 3, Lumenera).

[4] = single administration, cited from earlier work
[5] = system: Puro-incorporated proteins in HCT116, HT29, CCD841-CoN and Caco-2 cells; assay: Immunoblotting of Puro-incorporated proteins in cell lysates; type: cell-based, human; details: Puro 2.1 μM, 16 h, with or without TSA 0.5 μM
Description: FIG. 27. Levels of Puro-incorporated proteins in the cells were monitored by immunoblotting. Indicated cell lines were treated either with vehicle control DMSO or Boc-KAc-Puro (16.9 μM) in the presence or absence of TSA (0.5 μM) for 20 h, followed by preparation of cell lysates. The lower panel (anti-α-Tubulin) serves as a loading control.
FIG. 28. Levels of Puro-incorporated proteins in the cells were monitored by immunoblotting. Indicated cell lines were treated either with vehicle control DMSO or Puro (2.1 μM) in the presence or absence of TSA (0.5 μM) for 16 h, followed by preparation of cell lysates. […] The lower panel (anti-α-Tubulin) serves as a loading control.
Cultured cells or tissue samples were sonicated in RIPA lysis buffer (1% NP-40, 0.1% SDS, 50 mM Tris-HCl pH 7.4, 150 mM NaCl, 0.5% sodium deoxycholate, 1 mM EDTA) supplemented with PMSF and protease inhibitor cocktail (Roche) on ice followed by clarification. Protein lysates were separated on sodium dodecyl sulfate-polyacrylamide gels and transferred onto nitrocellulose membranes (Whatman). The primary antibodies used were anti-puromycin (3RH11, KeraFAST) and anti-α-tubulin (Sigma-Aldrich). Proteins of interest were detected with anti-mouse secondary antibody by chemiluminescence (ECL Kit, GE Healthcare Life Sciences).

T1 sequence (P07711 114-288 limits assumed): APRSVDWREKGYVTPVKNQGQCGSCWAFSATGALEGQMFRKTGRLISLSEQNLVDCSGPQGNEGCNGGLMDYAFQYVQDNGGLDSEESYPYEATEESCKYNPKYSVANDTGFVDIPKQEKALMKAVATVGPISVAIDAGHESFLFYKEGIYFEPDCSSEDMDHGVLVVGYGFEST
T1 sequence (P07711 292-333 limits assumed): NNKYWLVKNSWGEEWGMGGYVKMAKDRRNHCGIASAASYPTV

In the case of `O=C[C@H](Cc1ccc(O)cc1)NC(=O)[C@H](Cc1ccccc1)NC(=O)OCc1ccccc1` [Z-FY-CHO] (Cbz-Phe-Tyr-aldehyde), the “Activation of substrate Boc-Lys(Ac)-AMC” value ([1]; Z-FY-CHO 10 μM) is reported as “completely abrogated” and the “Release of AMC” value [2] is reported as “significantly blocked”.

With `Nc1nc(=O)n([C@@H]2O[C@H](CO)[C@@H](O)[C@H]2O)cc1F` [5FCR, 5-fluorocytidine] the IC50 (BxPC3 cells (shGFP)) was 1.3 µM and the IC50 (BxPC3 cells (shSki)) was 1.2 µM.

In the case of `CC(/C=C/C(=O)NO)=C\[C@@H](C)C(=O)c1ccc(N(C)C)cc1` [TSA, Trichostatin A], the Cytotoxicity (cells) is reported as “cytotoxic effect” and the “Activation of substrate Boc-Lys(Ac)-AMC” value ([1]; TSA 1 μM) is reported as “completely inhibited activation”.

In the case of `CC(=O)NCCCC[C@H](NC(=O)OC(C)(C)C)C(=O)Nc1ccc2c(C)cc(=O)oc2c1` [Boc-Lys(Ac)-AMC], the “Time course of AMC release” value ([1]; BxPC3, 25 μM, over 20 hr) is reported as “released linearly” and the “Activation in live cells relative to total HDAC activity” value ([1]; BxPC3 live cells, 25 μM, 2.5 hr, without lysis and trypsin) is reported as “approximately 50%”.

With `CC(=O)NCCCCC(NC(=O)OC(C)(C)C)C(=O)Nc1nc(=O)n([C@@H]2O[C@H](CO)[C@@H](O)[C@H]2O)cc1F` (stereo partly drawn) [BKAc-5FCR, t-butyl (6-acetamido-1-((1-((2R,3R,4S,5R)-3,4-dihydroxy-5-(hydroxymethyl)tetrahydrofuran-2-yl)-5-fluoro-2-oxo-1,2-dihydropyrimidin-4-yl)amino)-1-oxohexan-2-yl) carbamate] the “Cytotoxic effect in the presence of HDAC inhibitor TSA” value (BXPC3 cells) was “substantially compromised”.

For `COc1ccc(C[C@H](N)C(=O)N[C@H]2[C@@H](O)[C@H](n3cnc4c(N(C)C)ncnc43)O[C@@H]2CO)cc1` [Puro, puromycin], the “Effect on cell viability” value [3] is given as “effective”, the LD50 ([4]; intraperitoneally) is given as 580 mg/kg and the LD50 ([4]; intravenously) is given as 335 mg/kg. For the same compound, the LD50 ([4]; orally) was 720 mg/kg and the “Puro incorporation between cell lines regardless of TSA treatment” value [5] was “no difference”.
